Reference: ChEMBL document CHEMBL1201862, “PubChem BioAssay data set” (2004)
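Where inhibition never reached the appropriate level, the endpoint shown equals the highest concentration tested. Otherwise, values were interpolated linearly from a five-concentration, 48-hour dose response in 96-well plates. Here, GI50 denotes the concentration required for 50% inhibition of growth.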 Activity calls are given as the source filed them. No stated cut-off is given here; in the data, active = GI50 up to about 1.1 µM and inactive = higher.

Experiments:
Test in all cases: growth of human tumour cells (NCI), 48 h
U-251 = system: U-251
T47D = system: T47D
NCI/ADR-RES = system: NCI/ADR-RES
MDA-MB-435 = system: MDA-MB-435
SNB-75 = system: SNB-75
HOP-92 = system: HOP-92
NCI-H23 = system: NCI-H23
SK-MEL-28 = system: SK-MEL-28
OVCAR-3 = system: OVCAR-3
SNB-19 = system: SNB-19
HCT-15 = system: HCT-15
OVCAR-8 = system: OVCAR-8
SF-539 = system: SF-539
EKVX = system: EKVX
MDA-MB-231 = system: MDA-MB-231
BT-549 = system: BT-549
NCI-H522 = system: NCI-H522

What does the source list for `COc1ccc(NC(=S)c2ccoc2C)cc1CC(=O)OC(C)C`?
GI50 (U-251): 67 µM (inactive); GI50 (T47D): 24.8 µM (inactive); GI50 (NCI/ADR-RES): 17.5 µM (inactive); GI50 (MDA-MB-435): 46.2 µM (inactive); GI50 (SNB-75): 15.7 µM (inactive); GI50 (HOP-92): 20.6 µM (inactive); GI50 (NCI-H23): 46.2 µM (inactive); GI50 (SK-MEL-28): 34.4 µM (inactive); GI50 (OVCAR-3): 26.5 µM (inactive); GI50 (SNB-19): 61.5 µM (inactive); GI50 (HCT-15): 55.2 µM; GI50 (OVCAR-8): 29 µM (inactive); GI50 (SF-539): 37.3 µM (inactive); GI50 (EKVX): 25.1 µM (inactive); GI50 (MDA-MB-231): 81.5 µM (inactive); GI50 (BT-549): > 10 µM (inactive); GI50 (NCI-H522): 36.3 µM (inactive)

Which GI50 (U-251) does the source give for `COc1cc(OC)c(/C=C/c2cnc3ccccc3n2)c(OC)c1` here?
The GI50 was > 10 µM (inactive).

And the GI50 (T47D)?
The GI50 was > 10 µM (inactive).

And the GI50 (NCI/ADR-RES)?
The GI50 was > 10 µM (inactive).

What about the GI50 (MDA-MB-435) of the same molecule?
Its GI50 is > 10 µM (inactive).

And the GI50 (SNB-75)?
The GI50 was > 10 µM (inactive).

And the GI50 (HOP-92)?
The GI50 was > 10 µM (inactive).

What about the GI50 (NCI-H23) of the same molecule?
The GI50 was > 10 µM (inactive).

What about the GI50 (SK-MEL-28) of the same molecule?
Its GI50 is > 10 µM (inactive).

And the GI50 (OVCAR-3)?
The GI50 was > 10 µM (inactive).

What about the GI50 (SNB-19) of the same molecule?
The GI50 was > 10 µM (inactive).

What about the GI50 (HCT-15) of the same molecule?
Its GI50 is over 10 µM.

What about the GI50 (OVCAR-8) of the same molecule?
The GI50 was > 10 µM (inactive).

What about the GI50 (SF-539) of the same molecule?
The GI50 was > 10 µM (inactive).

And the GI50 (EKVX)?
The GI50 was > 10 µM (inactive).

What about the GI50 (MDA-MB-231) of the same molecule?
Its GI50 is > 10 µM (inactive).

What about the GI50 (BT-549) of the same molecule?
Its GI50 is > 10 µM (inactive).

What about the GI50 (NCI-H522) of the same molecule?
Its GI50 is > 10 µM (inactive).

What does the source list for `Cc1ccccc1-n1c(=O)nc2n(-c3ccc(C(C)(C)C)cc3)c3ccccc3cc-2c1=O`?
GI50 (U-251): 15 µM (inactive); GI50 (T47D): 26.2 µM (inactive); GI50 (NCI/ADR-RES): 16.7 µM (inactive); GI50 (MDA-MB-435): 11.3 µM (inactive); GI50 (SNB-75): 22.3 µM (inactive); GI50 (HOP-92): 21.4 µM (inactive); GI50 (NCI-H23): 21.7 µM (inactive); GI50 (SK-MEL-28): 15.3 µM (inactive); GI50 (OVCAR-3): 18.4 µM (inactive); GI50 (SNB-19): 21.5 µM (inactive); GI50 (HCT-15): 16.6 µM; GI50 (OVCAR-8): 17.1 µM (inactive); GI50 (SF-539): 17.8 µM (inactive); GI50 (EKVX): 22.4 µM (inactive); GI50 (MDA-MB-231): 19 µM (inactive); GI50 (BT-549): 25.7 µM (inactive); GI50 (NCI-H522): 21.7 µM (inactive)

With `O=C(CN1CCOCC1)CC(O)(C(F)(F)F)C(F)(F)F` as the molecule, how does the GI50 (U-251) read?
The GI50 was 51.4 µM (inactive).

And the GI50 (T47D)?
Its GI50 is 42.4 µM (inactive).

And the GI50 (NCI/ADR-RES)?
The GI50 was > 100 µM (inactive).

What about the GI50 (MDA-MB-435) of the same molecule?
Its GI50 is > 100 µM (inactive).

And the GI50 (SNB-75)?
Its GI50 is 38.6 µM (inactive).

What about the GI50 (HOP-92) of the same molecule?
The GI50 was 29.6 µM (inactive).

What about the GI50 (NCI-H23) of the same molecule?
The GI50 was 33.5 µM (inactive).

What about the GI50 (SK-MEL-28) of the same molecule?
The GI50 was > 100 µM (inactive).

And the GI50 (OVCAR-3)?
Its GI50 is 35.9 µM (inactive).

And the GI50 (SNB-19)?
Its GI50 is 65.9 µM (inactive).

What about the GI50 (HCT-15) of the same molecule?
The GI50 was 55.5 µM.

What about the GI50 (OVCAR-8) of the same molecule?
Its GI50 is > 100 µM (inactive).

And the GI50 (SF-539)?
Its GI50 is > 100 µM (inactive).

What about the GI50 (EKVX) of the same molecule?
Its GI50 is > 100 µM (inactive).

And the GI50 (MDA-MB-231)?
Its GI50 is > 100 µM (inactive).

What about the GI50 (BT-549) of the same molecule?
Its GI50 is > 100 µM (inactive).

And the GI50 (NCI-H522)?
The GI50 was 42 µM (inactive).

How did the GI50 (U-251) turn out when `NC(=O)C(=O)C(c1ccccc1)S(=O)(=O)Cc1ccccc1` (centres undefined) was run?
The GI50 was > 100 µM (inactive).

And the GI50 (T47D)?
Its GI50 is > 100 µM (inactive).

What about the GI50 (NCI/ADR-RES) of the same molecule?
The GI50 was > 100 µM (inactive).

What about the GI50 (MDA-MB-435) of the same molecule?
The GI50 was > 100 µM (inactive).

And the GI50 (SNB-75)?
Its GI50 is > 82 µM (inactive).

What about the GI50 (HOP-92) of the same molecule?
Its GI50 is > 100 µM (inactive).

And the GI50 (NCI-H23)?
The GI50 was > 100 µM (inactive).

What about the GI50 (SK-MEL-28) of the same molecule?
Its GI50 is > 100 µM (inactive).

And the GI50 (OVCAR-3)?
Its GI50 is > 100 µM (inactive).

And the GI50 (SNB-19)?
The GI50 was > 100 µM (inactive).

And the GI50 (HCT-15)?
The GI50 was over 100 µM.

And the GI50 (OVCAR-8)?
The GI50 was > 100 µM (inactive).

What about the GI50 (SF-539) of the same molecule?
Its GI50 is > 100 µM (inactive).

What about the GI50 (EKVX) of the same molecule?
The GI50 was > 100 µM (inactive).

And the GI50 (MDA-MB-231)?
Its GI50 is > 100 µM (inactive).

And the GI50 (BT-549)?
Its GI50 is > 100 µM (inactive).

What about the GI50 (NCI-H522) of the same molecule?
Its GI50 is > 100 µM (inactive).

How did the GI50 (U-251) turn out when `COc1cc(C2C3=C(COC3=O)Oc3cc4c(cc32)OCO4)ccc1OC(C)=O` (centres undefined) was run?
The GI50 was 0.492 µM (active).

What about the GI50 (T47D) of the same molecule?
Its GI50 is 0.565 µM (active).

And the GI50 (NCI/ADR-RES)?
Its GI50 is 0.279 µM (active).

And the GI50 (MDA-MB-435)?
Its GI50 is 0.0263 µM (active).

And the GI50 (SNB-75)?
Its GI50 is 0.168 µM (active).

And the GI50 (HOP-92)?
Its GI50 is 6 µM (inactive).

What about the GI50 (NCI-H23) of the same molecule?
The GI50 was 0.67 µM (active).

And the GI50 (SK-MEL-28)?
Its GI50 is 10.8 µM (inactive).

What about the GI50 (OVCAR-3) of the same molecule?
The GI50 was 0.244 µM (active).

What about the GI50 (SNB-19) of the same molecule?
Its GI50 is 0.35 µM (active).

And the GI50 (HCT-15)?
The GI50 was 0.468 µM.

And the GI50 (OVCAR-8)?
The GI50 was 0.752 µM (active).

What about the GI50 (SF-539) of the same molecule?
Its GI50 is 0.25 µM (active).

What about the GI50 (EKVX) of the same molecule?
Its GI50 is 1.21 µM (inactive).

And the GI50 (MDA-MB-231)?
The GI50 was 0.436 µM (active).

And the GI50 (BT-549)?
Its GI50 is 0.222 µM (active).

What about the GI50 (NCI-H522) of the same molecule?
The GI50 was 0.0948 µM (active).

`O=c1c2cc(-c3ccccc3)cnc2sn1-c1ccc(Oc2ccccc2)cc1` was tested. Which GI50 (U-251) did it give?
Its GI50 is 23.6 µM (inactive).

What about the GI50 (T47D) of the same molecule?
The GI50 was 63 µM (inactive).

What about the GI50 (NCI/ADR-RES) of the same molecule?
Its GI50 is 27 µM (inactive).

What about the GI50 (MDA-MB-435) of the same molecule?
Its GI50 is 41.1 µM (inactive).

And the GI50 (SNB-75)?
The GI50 was 32 µM (inactive).

What about the GI50 (HOP-92) of the same molecule?
Its GI50 is 30.7 µM (inactive).

And the GI50 (NCI-H23)?
Its GI50 is 61 µM (inactive).

What about the GI50 (SK-MEL-28) of the same molecule?
Its GI50 is > 100 µM (inactive).

And the GI50 (OVCAR-3)?
Its GI50 is 31.5 µM (inactive).

And the GI50 (SNB-19)?
The GI50 was 19.2 µM (inactive).

What about the GI50 (HCT-15) of the same molecule?
The GI50 was 56.5 µM.

And the GI50 (OVCAR-8)?
The GI50 was 26.9 µM (inactive).

And the GI50 (SF-539)?
The GI50 was 50.4 µM (inactive).

And the GI50 (EKVX)?
Its GI50 is 68.5 µM (inactive).

What about the GI50 (MDA-MB-231) of the same molecule?
The GI50 was 14.5 µM (inactive).

And the GI50 (BT-549)?
Its GI50 is 23.2 µM (inactive).

What about the GI50 (NCI-H522) of the same molecule?
Its GI50 is 34.4 µM (inactive).
